Data on four compounds can be found in BindingDB's records for doi:10.1021/jm00047a011 (Purdue University, 2021).

For orientation: IC50 means the concentration that inhibits the measured activity by half.

The structures appear in SMILES notation.

For experiment [1], the target named is T1, Nicotinamide N-methyltransferase (Homo sapiens, UniProt P40261).
T1 sequence (P40261 whole entry): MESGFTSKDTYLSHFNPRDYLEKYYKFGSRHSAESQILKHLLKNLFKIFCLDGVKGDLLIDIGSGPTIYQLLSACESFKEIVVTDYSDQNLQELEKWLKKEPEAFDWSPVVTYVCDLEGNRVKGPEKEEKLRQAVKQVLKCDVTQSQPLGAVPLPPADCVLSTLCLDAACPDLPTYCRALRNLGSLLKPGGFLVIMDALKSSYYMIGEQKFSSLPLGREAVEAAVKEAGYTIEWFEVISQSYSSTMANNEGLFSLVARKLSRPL
Kind of experiment: Inhibition of NNMT (unknown origin) assessed as formation of MNA using nicotinamide as substrate and SAM as cofactor by fluorescence based assay.

Experiment [2] deals with T1, Nicotinamide N-methyltransferase. In words: Inhibition of endogenous human NNMT overexpressed in human U2OS cells assessed incubated for 24 hrs by LC-MS/MS analysis.
The target of experiment [3] is T2, Nicotinamide N-methyltransferase (Mus musculus, UniProt O55239).
T2 sequence (O55239 whole entry): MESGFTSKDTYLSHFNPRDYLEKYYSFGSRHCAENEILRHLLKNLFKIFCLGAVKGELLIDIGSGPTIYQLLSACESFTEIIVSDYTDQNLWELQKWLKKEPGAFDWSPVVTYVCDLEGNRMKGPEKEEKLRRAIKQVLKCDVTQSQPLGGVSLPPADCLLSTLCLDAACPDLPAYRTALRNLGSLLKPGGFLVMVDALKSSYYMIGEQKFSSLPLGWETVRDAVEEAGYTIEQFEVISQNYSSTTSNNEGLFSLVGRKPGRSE
Kind of experiment: Inhibition of endogenous mouse NNMT overexpressed in murine 3T3-L1 cells assessed incubated for 24 hrs by LC-MS/MS analysis.

The target of experiment [4] is T1, Nicotinamide N-methyltransferase. Kind of experiment: Binding affinity to recombinant human NNMT SAM binding site expressed in Escherichia coli BL21 (DE3) using nicotinamide as substrate and AdoMet as cofactor preincubated for 10 mins followed by substrate addition and measured after 10 mins by UHP-HILIC-MS analysis.

For `C=C(C)[C@@]12O[C@@]3(/C=C/C=C/CCCCC)O[C@@H]1[C@@H]1[C@@H]4O[C@]4(CO)[C@@H](O)[C@]4(O)C(=O)C(C)=C[C@H]4[C@@]1(O3)[C@H](C)[C@H]2OC(C)=O` [YUANHUADINE], the IC50 in experiment [1] was found to be 4 µM.
In the case of `COc1ccc(C(N)=O)cn1`, the values for the IC50 in experiment [2] and in experiment [3] were 1.6 µM and 6.3 µM, respectively.
Take `Nc1ncnc2c1ncn2[C@@H]1O[C@H](C[C@@H](N)CC[C@H](N)C(=O)O)[C@@H](O)[C@H]1O` [SINEFUNGIN]: in experiment [4], the IC50 is 3.9 µM.
Regarding `Nc1ncnc2c1ncn2[C@@H]1O[C@H](CSCC[C@H](N)C(=O)O)[C@@H](O)[C@H]1O` [AdoHcy], the IC50 in experiment [4] stood at 26.3 µM.
